From publication PMC9479156 (Frontiers in Pharmacology, 2022)
Like-named read-outs stand apart in the source and are kept apart here.

Tests used:
[1] = system: asexual blood stage P. falciparum NF54 (drug sensitive); test: SYBR Green I proliferation assay, asexual blood stage Pf NF54; assay type: cell-based; settings: Plasmodium falciparum, NF54; asexual blood stage, SYBR Green I, 96 h, mean ± SEM; this study; read-out: IC50 NF54
Experimental: In vitro cultivation of asexual and gametocyte P. falciparum parasites: P. falciparum asexual blood stage parasites were cultivated in human erythrocytes in RPMI-1640 media supplemented with AlbuMax II under sterile conditions and in a hypoxic environment (90% N2, 5% CO2, and 5% O2) at 37°C as described previously ([Coertzen et al., 2018]; [Wong et al., 2019]). Gametocytes were produced from asexual blood stage parasites in a stage-specific manner through induction of cellular stress as described previously ([Reader et al., 2015]; [Coertzen et al., 2018]; [Wong et al., 2019]; [Reader et al., 2022]).
DHA, artesunate, artemether, chloroquine (CQ), and methylene blue (MB) were used as reference drugs. All assay conditions are as previously described ([Coertzen et al., 2018]; [Wong et al., 2019]). […] Dose-responses were determined using a 2-fold serial drug dilution on in vitro 95% ring-stage intraerythrocytic Pf parasites (1% parasitemia, 1% hematocrit) at 37°C under 90% N2, 5% CO2, and 5% O2 atmospheric conditions, detecting SYBR green I fluorescence as a marker for parasite proliferation following a 96 h drug treatment ([Smilkstein et al., 2004]; [Verlinden et al., 2011]). Activity against the Pf drug-sensitive NF54 strain and the multi drug-resistant K1 (resistant to CQ, quinine, pyrimethamine, and cycloguanil), and W2 (resistant to CQ, quinine, pyrimethamine, and cycloguanil) strains was evaluated. […] Data analysis was performed using GraphPad Prism (version 6) software, intra-assay variability was monitored with Z-factors, and acceptable inter-assay reproducibility was determined from the percent coefficient of variation (CV) ([Reader et al., 2015]). […]
Activity was determined using the SYBR Green I based fluorescence assay on asexual blood stages of the NF54 (drug sensitive), K1 and W2 (drug resistant) strains of P. falciparum. […] Also included in Table 1 for direct comparison of activities against celastrol are data for the internal reference standards MB and artemisone recorded at the same time as for celastrol. […]

[2] = system: asexual blood stage Pf NF54; test: Fixed-ratio isobole drug combination assay (SYBR Green I); assay type: cell-based, Plasmodium falciparum
Experimental: The in vitro interactions of celastrol with artemisone and MB was determined using a fixed-ratio isobole analysis on Pf NF54 asexual parasites (SYBR Green I-based fluorescence). […] The fractional inhibitory concentration (FIC) for each drug in the combination was calculated as follows:
FIC = IC50 of drug A in combination with drug B/IC50 of drug A
The paired FIC values for the drugs in each combination were linearly plotted to provide the isobologram. The ΣFIC of FIC of drug A in combination with FIC of drug B was determined by calculating the mean FIC value, to obtain the representative FIC value for the drug combination. Data obtained were analysed in Excel, and sigmoidal dose-response curves and isobolograms were plotted using GraphPad 6.0. Experiments were performed in triplicate, and repeated 3 times.
As previously recorded for each of artemiside and artemisone in combination with MB ([Coertzen et al., 2018]), drug-drug interactions were monitored through evaluation of fractional inhibitory concentration (FIC) as determined by isobolograms. A mean ΣFIC<1.0 represents a synergistic interaction, >1.3 an antagonistic interaction and ΣFIC = 1 an indifferent or additive interaction. Isobologram analysis of the combinations of each of artemisone and MB in combination with celastrol was performed against the asexual stages of Pf NF54 using the SYBR Green I based assay. In Table 3 are shown the calculated FIC values for the independent combinations at each ratio as well as the ∑FIC values for each combination. In Figure 5 are presented the independent isoboles for each drug combination.

[3] = system: asexual blood stage P. falciparum NF54 (drug sensitive); set-up: method as in Coertzen et al., 2018; Wong et al., 2019; settings: SYBR Green I, mean ± SEM, ref Coertzen et al., 2018, Wong et al., 2019; cited from earlier work
[4] = system: asexual blood stage P. falciparum K1 (multidrug resistant); settings: asexual blood stage, SYBR Green I, mean ± SEM; ref Coertzen et al., 2018; Wong et al., 2019; cited from earlier work
[5] = system: asexual blood stage P. falciparum W2 (multidrug resistant); set-up: method as in Coertzen et al., 2018; Wong et al., 2019; settings: asexual blood stage, SYBR Green I, mean ± SEM; ref Coertzen et al., 2018; Wong et al., 2019; cited from earlier work
[6] = system: immature stage II-III P. falciparum NF54 gametocytes; set-up: method as in Coertzen et al., 2018, Wong et al., 2019; settings: NF54 gametocytes, luciferase, 48 h, mean ± SEM; ref Coertzen et al., 2018, Wong et al., 2019; read-out: Immature stage II-III (luc 48 h) IC50; cited from earlier work
[7] = system: late stage IV-V P. falciparum NF54 gametocytes; set-up: method as in Coertzen et al., 2018, Wong et al., 2019; settings: NF54 gametocytes, luciferase, 72 h, mean ± SEM; ref Coertzen et al., 2018, Wong et al., 2019; read-out: Late stage IV-V (luc 72 h) IC50; cited from earlier work
[8] = system: chloroquine sensitive Pf NF54 strain; settings: tritiated hypoxanthine assay; ref Figueiredo et al., 1998; Li et al., 2019; cited from earlier work
[9] = system: multidrug resistant Pf K1 strain; settings: tritiated hypoxanthine assay; ref Figueiredo et al., 1998; Li et al., 2019; cited from earlier work
[10] = system: Pf; set-up: method as in Lanfranchi et al., 2012; settings: tritiated hypoxanthine assay; ref Lanfranchi et al., 2012; cited from earlier work

## CN(C)c1ccc2nc3ccc(=[N+](C)C)cc-3sc2c1 [Methylene Blue, methylene blue, reference compound]
[1]
  IC50: 5.9 ± 0.8 nM
[2]; MB:celastrol drug ratio 20:80, Pf NF54
  FIC: 0.70
[2]; MB:celastrol drug ratio 40:60, Pf NF54
  FIC: 0.67
[2]; MB:celastrol drug ratio 60:40, Pf NF54
  FIC: 0.66
[2]; MB:celastrol drug ratio 80:20, Pf NF54
  FIC: 0.79
[3]
  IC50: 5 nM
[4]
  IC50: 6.45 ± 0.3 nM
[5]
  IC50: 5.13 ± 0.31 nM
[6]
  IC50: 95 ± 11.3 nM
[7]
  IC50: 143 ± 16.7 nM

## COC(=O)[C@]1(C)CC[C@]2(C)CC[C@]3(C)C4=CC=C5C(=CC(=O)C(O)=C5C)[C@]4(C)CC[C@@]3(C)[C@@H]2C1 [Pristimerin, pristimerin, reference compound]
[8]
  IC50: 583 nM
[9]
  IC50: 409 nM

## CC1=CC(=O)c2ccccc2C1=O [menadione]
[10]
  IC50: 9600 to 12000 nM
